Data on 30 compounds can be found in ChEMBL document CHEMBL1201862, “PubChem BioAssay data set” (2004).

The source made the active and inactive calls. Where only a bound is given, the exact number is not on record here.

For assay [1], the target named is T1, Mannose-6-phosphate isomerase (Homo sapiens, UniProt P34949).
T1 sequence (P34949 whole entry): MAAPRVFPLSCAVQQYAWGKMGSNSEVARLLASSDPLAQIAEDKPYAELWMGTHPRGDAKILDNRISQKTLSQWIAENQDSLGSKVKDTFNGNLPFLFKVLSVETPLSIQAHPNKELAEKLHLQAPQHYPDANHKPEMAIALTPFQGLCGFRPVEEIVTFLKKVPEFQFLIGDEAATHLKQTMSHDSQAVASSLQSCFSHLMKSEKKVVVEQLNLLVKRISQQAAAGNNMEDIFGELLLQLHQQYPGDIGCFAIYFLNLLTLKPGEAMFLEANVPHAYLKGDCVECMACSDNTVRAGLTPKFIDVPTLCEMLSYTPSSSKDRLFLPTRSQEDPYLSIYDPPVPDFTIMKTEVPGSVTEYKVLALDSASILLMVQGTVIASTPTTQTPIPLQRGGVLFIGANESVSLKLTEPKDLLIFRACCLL
The experiment in a line: human PMI inhibitors, high substrate, primary screen, biochemical, fluorescence intensity, high mannose 6-phosphate (AID 1220).

In assay [2] the target is Paired box protein Pax-8 (Homo sapiens, UniProt Q06710). Briefly: inhibitors of PAX8-driven TPO luciferase reporter, dose response, RMG-I cells, cherry-pick (AID 687027).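 Also: luciferase reporter driven by Pax8 target thyroperoxidase promoter measured by SteadyGlo luminescence.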 The format is functional, cell-based. Background: Reporter assays use an easily measured gene product as a stand-in for the process of interest.
Paired box protein Pax-8, sequence (Q06710 whole entry): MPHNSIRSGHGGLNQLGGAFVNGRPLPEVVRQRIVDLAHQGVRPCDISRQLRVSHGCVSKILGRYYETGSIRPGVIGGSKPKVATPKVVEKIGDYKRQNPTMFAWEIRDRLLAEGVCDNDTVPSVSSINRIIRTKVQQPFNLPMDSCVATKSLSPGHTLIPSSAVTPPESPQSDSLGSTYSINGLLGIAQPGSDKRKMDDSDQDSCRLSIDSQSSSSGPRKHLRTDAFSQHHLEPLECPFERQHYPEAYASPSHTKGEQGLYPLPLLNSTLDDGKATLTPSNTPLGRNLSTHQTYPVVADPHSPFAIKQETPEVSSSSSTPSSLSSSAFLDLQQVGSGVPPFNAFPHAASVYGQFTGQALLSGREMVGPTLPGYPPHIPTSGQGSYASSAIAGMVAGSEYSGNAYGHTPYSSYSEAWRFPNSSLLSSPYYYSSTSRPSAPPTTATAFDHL
Assay [3] is described as follows: non-specific cell cytotoxicity, dose response, cytotoxicity control for PAX8 inhibitor project, plate reader, dry powder samples (AID 743021). The assay is classed as functional, cell-based.
The nature of assay [4]: THP-1 cell cytotoxicity, dose response, cytotoxicity control for non-replicating M. tuberculosis project (AID 489025). The assay is classed as functional.
Assay [5] in a line: cells. The assay is classed as functional.
The nature of assay [6]: cells. The assay is classed as functional, cell-based.
The nature of assay [7]: cells. The assay is classed as functional, cell-based. The source holds these as a separate data set.
Assay [8] concerns the target Heat shock protein HSP 90-alpha (Homo sapiens, UniProt P07900). The format is functional, organism-based.
Assay [9] addresses Induced myeloid leukemia cell differentiation protein Mcl-1 (Homo sapiens, UniProt Q07820). The assay is classed as functional.
Assay [10] in a line: Shn3 3'UTR reporter inhibitors, dose response, cell-based, Clone20 osteoblasts, firefly luciferase, cherry-picked (AID 624132).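 Also: firefly luciferase luminescence from reporter carrying the Shn3 3'UTR in osteoblasts.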 The assay is classed as functional.
A short description of assay [11]: control 3'UTR Renilla luciferase suppression, dose response, counter-screen for Shn3 inhibitor project, cell-based, Clone20-Shn3RL, cherry-picked (AID 624133). The format is functional. (In general: Counterscreens check selectivity or assay interference.)
For assay [12], the target named is Cytochrome P450 3A4 (Homo sapiens, UniProt P08684). Conditions: Potency.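 Also: confirmatory qHTS run detecting inhibitors and substrates of CYP3A4.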
Cytochrome P450 3A4, sequence (P08684 whole entry, the tested form may be a part): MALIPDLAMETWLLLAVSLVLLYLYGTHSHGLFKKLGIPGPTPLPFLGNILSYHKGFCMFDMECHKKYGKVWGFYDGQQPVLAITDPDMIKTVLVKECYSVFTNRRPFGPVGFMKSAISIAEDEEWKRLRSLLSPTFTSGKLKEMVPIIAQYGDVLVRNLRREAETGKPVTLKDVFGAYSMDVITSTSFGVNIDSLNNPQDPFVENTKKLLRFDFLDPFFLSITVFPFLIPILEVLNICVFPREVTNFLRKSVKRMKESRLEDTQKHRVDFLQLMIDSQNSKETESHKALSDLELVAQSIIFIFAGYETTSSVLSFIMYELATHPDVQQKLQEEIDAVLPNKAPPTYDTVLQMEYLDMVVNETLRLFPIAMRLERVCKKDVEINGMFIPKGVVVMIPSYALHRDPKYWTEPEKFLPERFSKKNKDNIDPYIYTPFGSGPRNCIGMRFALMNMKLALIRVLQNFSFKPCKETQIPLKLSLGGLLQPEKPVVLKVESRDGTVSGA
A short description of assay [13]: inhibitors of HIV Env-driven cell fusion, dose response, cherry-pick (AID 652057). The assay is classed as functional, cell-based.
A short description of assay [14]: ZM109 Env clade C HIV-1 fusion inhibitors, dose response, HeLa effector, CEM target cells, luciferase, cherry-pick (AID 652058). The assay is classed as functional, cell-based.
Assay [15] is described as follows: off-target signal loss in HeLa-CEM21 co-culture – HeLa F-luc CTL cells, cherry-picked, counter-screen for HIV-1 Env fusion inhibitor project, dose response (AID 652040).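 Also: potency for signal decrease marking cytotoxic or nonspecific inhibition.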 The format is functional, cell-based.
Assay [16] in a line: inhibitors of clade B AD8 Env fusion, dose response, cell-based, cherry-pick (AID 652062).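 Also: luciferase signal from cell-cell fusion driven by HIV-1 clade B AD8 Env; potency is for inhibitors of fusion seen as a drop in luminescence.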 The format is functional.
Assay [17] is described as follows: cytotoxicity in OVCAR8 ovarian cancer cells, dose response, PAX8 project, cell-based, plate reader, dry powder samples (AID 743197). The format is functional. Particulars: OVCAR-8.
Assay [18] addresses T2, Cytochrome P450 1A2 (Homo sapiens, UniProt P05177).
T2 sequence (P05177 whole entry): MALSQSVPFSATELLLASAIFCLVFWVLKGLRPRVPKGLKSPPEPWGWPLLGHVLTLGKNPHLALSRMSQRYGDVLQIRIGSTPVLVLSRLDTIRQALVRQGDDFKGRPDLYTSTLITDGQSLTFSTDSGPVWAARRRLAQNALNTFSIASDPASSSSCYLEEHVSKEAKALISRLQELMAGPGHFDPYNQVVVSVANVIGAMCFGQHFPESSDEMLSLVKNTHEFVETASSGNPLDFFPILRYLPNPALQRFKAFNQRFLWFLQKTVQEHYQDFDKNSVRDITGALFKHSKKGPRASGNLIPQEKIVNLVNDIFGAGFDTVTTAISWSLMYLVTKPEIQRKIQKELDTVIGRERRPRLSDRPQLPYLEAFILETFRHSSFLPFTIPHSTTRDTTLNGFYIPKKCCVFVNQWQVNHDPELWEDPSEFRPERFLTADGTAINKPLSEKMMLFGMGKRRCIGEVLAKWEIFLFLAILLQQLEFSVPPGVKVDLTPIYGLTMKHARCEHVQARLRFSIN

Assay [19] concerns the target T3, Leucine aminopeptidase (Plasmodium falciparum 3D7, UniProt Q8IL11).
T3 sequence (Q8IL11 whole entry): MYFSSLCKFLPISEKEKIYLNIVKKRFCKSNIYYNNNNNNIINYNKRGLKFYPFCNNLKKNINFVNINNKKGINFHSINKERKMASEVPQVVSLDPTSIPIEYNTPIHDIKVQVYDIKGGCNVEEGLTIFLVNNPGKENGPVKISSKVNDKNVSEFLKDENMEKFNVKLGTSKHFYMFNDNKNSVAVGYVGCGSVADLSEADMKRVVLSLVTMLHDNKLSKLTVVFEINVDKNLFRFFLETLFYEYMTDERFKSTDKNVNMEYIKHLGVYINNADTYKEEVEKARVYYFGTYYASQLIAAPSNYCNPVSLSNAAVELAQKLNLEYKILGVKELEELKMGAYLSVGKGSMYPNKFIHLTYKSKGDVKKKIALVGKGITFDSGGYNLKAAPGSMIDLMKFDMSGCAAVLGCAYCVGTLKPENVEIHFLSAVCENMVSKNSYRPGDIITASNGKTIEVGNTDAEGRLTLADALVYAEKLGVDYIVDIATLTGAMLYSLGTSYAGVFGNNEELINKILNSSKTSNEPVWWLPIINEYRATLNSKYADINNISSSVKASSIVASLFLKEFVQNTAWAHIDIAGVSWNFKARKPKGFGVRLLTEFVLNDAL
Briefly: P. falciparum M17LAP inhibitors, primary screen, biochemical, fluorogenic H-Leu-NHMec substrate, 1536-well (AID 1619). The format is functional.

For assay [20], the target named is Genome polyprotein (dengue virus type 2, UniProt P29990). The experiment in a line: Dengue-2 NS5 methyltransferase inhibitors, primary screen, biochemical, confirmation dose response (AID 588689). The format is functional.
Genome polyprotein, sequence (P29990 2492-3391 limits assumed): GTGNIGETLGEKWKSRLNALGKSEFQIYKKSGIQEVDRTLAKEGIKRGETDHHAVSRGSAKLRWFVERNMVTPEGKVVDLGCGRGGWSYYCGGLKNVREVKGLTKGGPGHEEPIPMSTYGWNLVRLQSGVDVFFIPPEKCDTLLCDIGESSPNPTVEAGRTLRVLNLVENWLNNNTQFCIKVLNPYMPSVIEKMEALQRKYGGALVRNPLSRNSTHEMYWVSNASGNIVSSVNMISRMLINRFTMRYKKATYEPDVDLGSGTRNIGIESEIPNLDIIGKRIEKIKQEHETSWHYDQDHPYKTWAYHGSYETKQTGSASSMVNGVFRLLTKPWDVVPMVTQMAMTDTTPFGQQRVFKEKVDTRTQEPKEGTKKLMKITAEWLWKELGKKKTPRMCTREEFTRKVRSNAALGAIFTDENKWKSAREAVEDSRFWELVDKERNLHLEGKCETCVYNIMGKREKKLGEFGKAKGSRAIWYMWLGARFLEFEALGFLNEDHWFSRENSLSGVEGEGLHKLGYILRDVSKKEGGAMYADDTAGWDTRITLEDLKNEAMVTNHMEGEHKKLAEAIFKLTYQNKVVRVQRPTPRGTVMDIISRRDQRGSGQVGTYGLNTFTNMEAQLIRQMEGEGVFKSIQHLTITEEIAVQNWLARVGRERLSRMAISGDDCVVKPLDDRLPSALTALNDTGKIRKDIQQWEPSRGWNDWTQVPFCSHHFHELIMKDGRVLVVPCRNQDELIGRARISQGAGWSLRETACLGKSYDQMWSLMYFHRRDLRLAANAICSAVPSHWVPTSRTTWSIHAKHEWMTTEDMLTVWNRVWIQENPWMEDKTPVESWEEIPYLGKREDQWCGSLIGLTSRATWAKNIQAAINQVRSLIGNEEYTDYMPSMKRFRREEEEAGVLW

Induced myeloid leukemia cell differentiation protein Mcl-1, sequence (Q07820 whole entry): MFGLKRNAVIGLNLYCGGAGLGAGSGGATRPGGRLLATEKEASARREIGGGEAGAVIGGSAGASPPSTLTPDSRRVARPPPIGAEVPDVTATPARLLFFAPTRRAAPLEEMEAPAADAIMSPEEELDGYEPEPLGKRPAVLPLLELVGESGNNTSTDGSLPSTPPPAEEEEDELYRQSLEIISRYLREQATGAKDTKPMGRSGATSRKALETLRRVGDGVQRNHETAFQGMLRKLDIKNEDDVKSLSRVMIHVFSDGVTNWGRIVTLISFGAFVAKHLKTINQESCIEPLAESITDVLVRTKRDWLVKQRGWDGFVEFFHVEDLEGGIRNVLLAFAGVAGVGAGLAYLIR

Regarding `CCOc1cc2c(C#N)c(N3CCCCC3)nc(N)c2c(N)n1`, the IC50 in assay [1] is reported as > 50 µM (not active). Turning to `COCCN1C(=O)Cc2c1nc(N)c1c(N)nc(N3CCN(c4ccc(F)cc4)CC3)c(C#N)c21`, the IC50 in assay [1] is > 50 µM (not active). With `CCCNC(=O)Nc1ccc2c(c1)OC[C@@H](C)N(Cc1ccc(-c3ccccn3)cc1)C[C@@H](C)[C@H](OC)CN(C)C2=O`, the half-maximal activity concentration (AC50) is 30.1 µM (active) in [2] and 41.7 µM (active) in assay [3]. On to `CN1CC(=O)N=C1NC(=O)C12CC3CC(CC(C3)C1)C2`, for which, in assay [4], the cytotoxic concentration (CC50) is > 40 µM (active). In addition, the IC50 in assay [5] is 23.9 µM (active). In the case of `CCc1ccc(NC(=O)COC(=O)c2cccs2)cc1`, the concentration giving a half-maximal response (EC50) was > 350 µM (not active) in assay [6] and 79.4 µM (active) in assay [7].

For `CCCCCCC(=O)N(O)C1CC(=O)N(c2ccc(Cl)cc2)C1=O` (stereo not drawn), in assay [8], the half-maximal activity concentration (AC50) was 1.64 µM (active). Consider `Cc1nnc(C)n1/N=C/c1cc(Br)cc(Br)c1O`, for which the concentration at half-maximal activity (AC50) in assay [8] was 1.68 µM (active).

Consider `COc1cccc(C(=O)Nc2cc(Cl)c(O)c(Cl)c2)c1`, for which the IC50 in [9] is 3.46 µM (not active). On to `Cc1cc(=O)oc2c3c(cc(OCC(=O)Nc4ccc(CCO)cc4)c12)OC(C)(C)CC3`, for which the AC50 in assay [10] and in [11] was > 70 µM (inactive) in each case.

For the compound `CCN(/N=C/c1ccc(N(C)C)cc1)c1nc2ccccc2[nH]1`, the half-maximal inhibitory concentration (IC50) in assay [9] was 1.44 µM (active).

As for `CC1(C)CCC2(C(=O)O)CC[C@]3(C)C(=CCC4[C@]5(C)CCC(O)C(C)(C)C5C(O)C[C@]43C)C2C1` (stereo partly drawn), the AC50 in assay [12] was 2.51 µM (inconclusive). For the compound `COC(=O)c1ccc(N2C(=O)CC(N3CCC(O)(c4ccc(Br)cc4)CC3)C2=O)cc1` (stereo not drawn), the AC50 in assay [8] is 2.85 µM (active). With `COc1ccc(-c2nnc(SCC(=O)Oc3ccc(C)cc3)o2)cc1`, the half-maximal activity concentration (AC50) in [8] is 2.53 µM (active).

As for `COC(=O)c1cccc(C23CC4(C2)[C@H](CN(C)[C@@H]4c2ccccc2)C3c2ccc(Cl)nc2)c1` (stereo partly drawn), the AC50 in assay [12] is 5.01 µM (inconclusive). For `CCCCCCN1C[C@H](n2cc(-c3ccc(F)cc3)nn2)[C@@H](O)C[C@@H]1c1ccc(Cl)cc1`, the concentration at half-maximal activity (AC50) in assay [10] is 10.3 µM (active); in assay [11], 25.8 µM (active). Consider `CC1(Cc2ccc(Cl)cc2)C(=O)Nc2ccc(S(=O)(=O)NC3CCCCC3)cc21` (stereo not drawn), for which the half-maximal activity concentration (AC50) was 0.396 µM (active) in assay [13], 1.12 µM (active) in assay [14], 1.04 µM (active) in [15] and 0.674 µM (active) in assay [16]. As to `COC(=O)c1cc(OC)c(=O)c2c(OC)c(OC)ccc2c1` [METHYL 7-DESOXYPURPUROGALLIN-7-CARBOXYLATE TRIMETHYL ETHER], the AC50 in assay [12] is 39.8 µM (inconclusive).

`COC(=O)C1(C(=O)OC)C[C@H](c2ccc(OC)cc2)N(Cc2ccccc2OC)[C@@H]1c1ccccc1`: the AC50 was 1.37 µM (active) in assay [13], 1.58 µM (active) in [14], 2.48 µM (active) in assay [15] and 8.22 µM (active) in assay [16]. On to `CN(C)c1ccc(NC(=O)/C=C/c2ccccc2Cl)cc1`, for which, in [9], the half-inhibitory concentration (IC50) is > 54 µM (active). As to `C[C@@H]1CCCCO[C@@H](CN(C)Cc2ccccc2)[C@H](C)CN([C@H](C)CO)C(=O)c2cc(NC(=O)Nc3ccc(C(F)(F)F)cc3)ccc2O1`, the half-maximal activity concentration (AC50) in [2] was 4.61 µM (active); in assay [17] it was > 70 µM (inactive). As to `O=c1cc(-c2ccccc2O)oc2c(O)c(O)ccc12`, the AC50 in assay [12] was 31.6 µM (inconclusive). `COc1ccccc1N1CCN(CCCNC(=O)C2CCCN(c3ncnc4c3nc3n4CCCCC3)C2)CC1` (stereo not drawn): the EC50 in [6] and in assay [7] was > 350 µM (not active) in each case.

On to `NC(=S)NNC(=O)c1cc(C(F)(F)F)cc(C(F)(F)F)c1`, for which the EC50 in assay [6] and in assay [7] was > 350 µM (not active) each time.

As to `CCOc1ccc(N2C(=O)CC(Sc3nc(C)cc(C)n3)C2=O)cc1` (stereo not drawn), the EC50 in [6] and in assay [7] was > 350 µM (not active) each time. Consider `CC(C)(O)C(=O)Nc1ccc([N+](=O)[O-])c(C(F)(F)F)c1` [HYDROXYFLUTAMIDE], for which, in assay [12], the AC50 is 25.1 µM (inconclusive).

Regarding `CC1(C)CC[C@]2(C(=O)O)CC[C@]3(C)C(=CCC4[C@@]5(C)CC[C@H](O)C(C)(C)C5[C@H](O)C[C@]43C)C2C1` (stereo partly drawn), the AC50 in [12] is 25.1 µM (inconclusive).

With `CN(CCO)c1nc(N)c2c(N)nc3c(c2c1C#N)CC(=O)N3C1CCCC1`, in assay [1], the IC50 is > 50 µM (not active). Also, the AC50 in assay [18] is 2.82 µM (inconclusive).

`COCCNc1nc(C)nc2c1nc(-c1ccccc1)n2CCCN1CCCCC1C` (stereo not drawn): in assay [12], the AC50 is 3.98 µM (inconclusive). With `COc1ccc(OC)c(NC(=O)CCc2nnc3ccc(NCc4ccco4)nn23)c1`, the EC50 in assay [6] and in assay [7] was > 350 µM (not active) each time. For `CCOC(=O)c1c(-c2ccc(C)c(C)c2)csc1NC(=O)C1CC=CCC1C(=O)O` (stereo not drawn), the results for the IC50 in assay [19] and in [20] were 10.3 µM (active) and 43.5 µM (active), respectively.

As usually defined, the IC50 is the point on the concentration scale where inhibition reaches its midpoint. By AC50 is commonly meant the concentration at which the activity in the assay is half-maximal. For orientation: CC50 means the concentration at which the toxic effect on the cells reaches its halfway point. In general, EC50 refers to the concentration at which the effect is half-maximal.
